Measurements: patent publication US20260083865A1, “PROSTATE SPECIFIC MEMBRANE ANTIGEN (PSMA) LIGANDS AND USE THEREOF” (priority 2022, published 2026)
Read-outs that look alike come from different tables or passages of the source. Numbered stars: 1 amine (or outer) side, 2 acyl side, 3 side chain; on linkers, the order of the positions; unused ones are H or OH. Bridge positions count the residues as written; N and C are the ends. Square brackets hold non-standard residues; d marks the D form. Peptide text beside a SMILES is read from it. * marks the point of attachment. TtdsdLys(DOTA)NH2 = NC(=O)[C@@H](CCCCNC(=O)CN1CCN(CC(=O)O)CCN(CC(=O)O)CCN(CC(=O)O)CC1)NC(=O)CCC(=O)NCCCOCCOCCOCCCN*; DOTA = O=C(O)CN1CCN(CC(=O)O)CCN(CC(=O)*)CCN(CC(=O)O)CC1; Arg(NO2) = N=C(NCCC[C@H](N)C(=O)O)N[N+](=O)[O-]; Phe(4-Cl) = N[C@@H](Cc1ccc(Cl)cc1)C(=O)O; Phe(3-Me) = Cc1cccc(C[C@H](N)C(=O)O)c1; X4 = O=C(CN1CCC(N[*:1])CC1)[*:2]; hPhe = N[C@@H](CCc1ccccc1)C(=O)O; X1 = O=C(CC1CCN([*:1])CC1)[*:2]; X6 = O=C(CN1CCN([*:1])CC1)[*:2]; Cit = NC(=O)NCCC[C@H](N)C(=O)O; Lys(Me) = CNCCCC[C@H](N)C(=O)O; Tle = CC(C)(C)[C@H](N)C(=O)O; Pyridin(2-yl) = c1ccc(*)nc1; 4Amb = NCc1ccc(C(=O)O)cc1; αMeS = C[C@](N)(CO)C(=O)O; Nle = CCCC[C@H](N)C(=O)O; Orn = NCCC[C@H](N)C(=O)O; Aib = CC(C)(N)C(=O)O; CO = O=C([*:1])[*:2]; NHBu = CCCCN*

Key:
[1] = target: T1, PSMA-expressing C4-2 cells (Homo sapiens, UniProt Q04609); test: FACS binding assay (competition with 50 nM PSM-0183); conditions: read-out: pIC50 [C4-2] CAT (converted)
T1 construct: PSMA-expressing C4-2 cells (ATCC, Cat. No. CRL-3314) were cultured in RPMI-1640; host or cells: C4-2 cells
T1 sequence (Q04609 whole entry): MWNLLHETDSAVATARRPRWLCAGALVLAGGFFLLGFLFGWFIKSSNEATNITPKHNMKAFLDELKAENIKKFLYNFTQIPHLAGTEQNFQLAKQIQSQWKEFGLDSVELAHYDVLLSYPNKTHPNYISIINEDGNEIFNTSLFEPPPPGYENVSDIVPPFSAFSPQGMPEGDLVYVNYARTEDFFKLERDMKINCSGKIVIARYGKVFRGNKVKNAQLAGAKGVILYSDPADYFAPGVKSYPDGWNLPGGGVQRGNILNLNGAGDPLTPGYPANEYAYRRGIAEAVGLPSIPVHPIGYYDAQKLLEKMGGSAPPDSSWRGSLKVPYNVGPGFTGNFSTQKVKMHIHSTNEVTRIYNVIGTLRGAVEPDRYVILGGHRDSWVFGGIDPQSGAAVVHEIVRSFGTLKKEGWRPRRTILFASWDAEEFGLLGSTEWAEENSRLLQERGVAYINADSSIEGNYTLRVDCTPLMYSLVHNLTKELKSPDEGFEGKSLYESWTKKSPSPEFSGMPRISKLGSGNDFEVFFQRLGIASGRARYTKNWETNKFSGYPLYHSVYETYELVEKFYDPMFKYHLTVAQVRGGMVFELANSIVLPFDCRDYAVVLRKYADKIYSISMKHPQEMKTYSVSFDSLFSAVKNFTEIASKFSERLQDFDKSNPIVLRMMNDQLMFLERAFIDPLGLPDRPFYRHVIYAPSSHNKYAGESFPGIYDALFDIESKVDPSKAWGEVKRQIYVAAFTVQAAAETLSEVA
In short: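 C4-2 cells were incubated 1 h at 4 °C with 50 nM AF488-labelled peptide PSM-0183 plus increasing test compound concentrations, then washed twice in ice-cold buffer. Median fluorescence in the AF488 channel was read by flow cytometry. IC50/pIC50 was derived by 4PL fitting of MFI versus concentration.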

[2] = target: T2, Fc-fusion protein of human PSMA (hPSMA-Fc) (Homo sapiens, UniProt Q04609); test: Surface plasmon resonance assay (Biacore T200, single cycle kinetic); format: binding; conditions: hPSMA-Fc, 25° C., read-out: pKD CAT (converted)
T2 construct: purchased Acro Biosystems PSA-H5264
T2 sequence (Q04609 44-750 limits assumed): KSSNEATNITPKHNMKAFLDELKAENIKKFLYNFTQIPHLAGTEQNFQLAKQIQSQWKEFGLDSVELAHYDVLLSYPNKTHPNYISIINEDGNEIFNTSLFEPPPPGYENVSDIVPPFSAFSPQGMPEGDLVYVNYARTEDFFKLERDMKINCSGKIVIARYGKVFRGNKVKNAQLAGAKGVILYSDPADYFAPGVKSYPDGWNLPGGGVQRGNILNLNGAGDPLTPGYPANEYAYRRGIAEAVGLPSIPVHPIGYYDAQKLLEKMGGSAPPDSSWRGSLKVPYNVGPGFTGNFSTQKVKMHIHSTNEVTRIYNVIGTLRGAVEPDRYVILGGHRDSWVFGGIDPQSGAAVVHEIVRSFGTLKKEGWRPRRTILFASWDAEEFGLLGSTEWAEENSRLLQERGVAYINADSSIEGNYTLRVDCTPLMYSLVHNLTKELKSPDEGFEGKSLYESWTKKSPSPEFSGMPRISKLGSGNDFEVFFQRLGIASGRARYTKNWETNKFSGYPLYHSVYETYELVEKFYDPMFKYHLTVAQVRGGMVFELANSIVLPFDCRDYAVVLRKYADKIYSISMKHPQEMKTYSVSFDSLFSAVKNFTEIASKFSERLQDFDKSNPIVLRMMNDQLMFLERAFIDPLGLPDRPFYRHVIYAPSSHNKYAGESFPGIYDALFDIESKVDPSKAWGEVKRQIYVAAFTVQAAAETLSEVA
In short: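 hPSMA-Fc was captured (~1000 RU) on an Fc-binding-peptide CM5 chip, and compounds were run in single cycle kinetic mode at 25° C in HBST with 0.1% DMSO. Double-blank-corrected sensorgrams were fitted to a 1:1 Langmuir model to give KD, reported as pKD.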

[3] = pIC50 category of FACS binding, C4-2 cells
[4] = pKD category for PSMA SPR activity assay
[5] = FACS binding, C4-2 cells, competition with 50 nM PSM-0183, category
[6] = SPR, single cycle kinetic, category

Compound	IC50 [1, 3]	Kd [2, 4]	IC50 [1, 5]	Kd [2, 6]	also measured
CC(=O)N[C@H](C(=O)NC(C)(C)C(=O)N[C@@H](CCc1ccccc1)C(=O)N[C@H]1CSSC[C@@H](C(=O)N[C@H](C(=O)N[C@H](C(N)=O)[C@@H](C)O)C(C)(C)C)NC(=O)[C@H](CC(N)=O)NC(=O)C(C)(C)NC(=O)[C@H](CCCNC(=N)N)NC(=O)[C@H](CCCCN)NC1=O)[C@@H](C)O [PSM-0411, Ac-Thr-Aib-Hfe-[Cys-Lys-Arg-Aib-Asn-Cys]-Tle-Thr-NH2] (Ac-T[Aib][hPhe]CKR[Aib]NC[Tle]T-NH2; disulfide 4-9)	< 200 nM	< 12.6 nM			
C[C@@H](O)[C@H](NC(=O)CN1CCN(CC(=O)O)CCN(CC(=O)O)CCN(CC(=O)O)CC1)C(=O)NC(C)(C)C(=O)N[C@@H](Cc1ccccc1)C(=O)N[C@H]1CSSC[C@@H](C(=O)N[C@H](C(N)=O)C(C)(C)C)NC(=O)[C@H](CC(N)=O)NC(=O)C(C)(C)NC(=O)[C@H](CCCNC(=N)N)NC(=O)[C@H](CCCCN)NC1=O [PSM-0184, DOTA-Thr-Aib-Phe-[Cys-Lys-Arg-Aib-Asn-Cys]-Tle-NH2] ({DOTA}-T[Aib]FCKR[Aib]NC[Tle]-NH2; disulfide 4-9)			< 200 nM	12.6 to 126 nM	
C[C@@H](O)[C@H](NC(=O)[C@@H](NC(=O)[C@@H]1CSSC[C@H](NC(=O)[C@H](Cc2ccccc2)NC(=O)C(C)(C)NC(=O)CN2CCN(C(=O)CN3CCN(CC(=O)O)CCN(CC(=O)O)CCN(CC(=O)O)CC3)CC2)C(=O)N[C@@H](CCCCN)C(=O)N[C@@H](CCCNC(=N)N)C(=O)NC(C)(C)C(=O)N[C@@H](CC(N)=O)C(=O)N1)C(C)(C)C)C(N)=O [PSM-0413, DOTA-PPAc-Aib-Phe-[Cys-Lys-Arg-Aib-Asn-Cys]-Tle-Thr-NH2] ({DOTA}-[X6][Aib]FCKR[Aib]NC[Tle]T-NH2; disulfide 4-9)	< 200 nM	12.6 to 126 nM			
CCCCNC(=O)N[C@H](C(=O)NC(C)(C)C(=O)N[C@@H](Cc1ccc(Cl)cc1)C(=O)N[C@H]1CSSC[C@@H](C(=O)N[C@H](C(=O)N[C@H](C(=O)N2CCC(CC(=O)N[C@H](CCCCNC(=O)CN3CCN(CC(=O)O)CCN(CC(=O)O)CCN(CC(=O)O)CC3)C(N)=O)CC2)[C@@H](C)O)C(C)(C)C)NC(=O)[C@H](CC(N)=O)NC(=O)C(C)(C)NC(=O)[C@H](CCCNc2ccccn2)NC(=O)[C@H](CCCCN)NC1=O)[C@@H](C)O [PSM-0427, nBuCAyl-Thr-Aib-Pcf-[Cys-Lys-Opy-Aib-Asn-Cys]-Tle-Thr-Cmp-lys(DOTA)-NH2] ({NHBu-CO}-T[Aib][Phe(4-Cl)]CK[Orn](Pyridin(2-yl))[Aib]NC[Tle]T[X1][dK](DOTA)-NH2; disulfide 4-9)	< 200 nM	12.6 to 126 nM			
CC(=O)N[C@H](C(=O)NC(C)(C)C(=O)N[C@@H](Cc1ccc(Cl)cc1)C(=O)N[C@H]1CSSC[C@@H](C(=O)N[C@H](C(=O)N[C@H](C(N)=O)[C@@H](C)O)C(C)(C)C)NC(=O)[C@H](Cc2c[nH]c3ccccc23)NC(=O)C(C)(C)NC(=O)[C@H](CCCNC(N)=O)NC(=O)[C@H](CCCCN)NC1=O)[C@@H](C)O [PSM-0238, Ac-Thr-Aib-Pcf-[Cys-Lys-Cit-Aib-Trp-Cys]-Tle-Thr-NH2] (Ac-T[Aib][Phe(4-Cl)]CK[Cit][Aib]WC[Tle]T-NH2; disulfide 4-9)			< 200 nM	< 12.6 nM	
C[C@@H](O)[C@H](NC(=O)[C@@H](NC(=O)[C@@H]1CSSC[C@H](NC(=O)[C@H](Cc2ccc(Cl)cc2)NC(=O)C(C)(C)NC(=O)[C@@H](NC(=O)CC2CCN(C(=O)CN3CCN(CC(=O)O)CCN(CC(=O)O)CCN(CC(=O)O)CC3)CC2)[C@@H](C)O)C(=O)N[C@@H](CCCCN)C(=O)N[C@@H](CCCNC(=N)N)C(=O)N[C@@](C)(CO)C(=O)N[C@@H](CC(N)=O)C(=O)N1)C(C)(C)C)C(N)=O [PSM-0382, DOTA-Cmp-Thr-Aib-Pcf-[Cys-Lys-Arg-Ams-Asn-Cys]-Tle-Thr-NH2] ({DOTA}-[X1]T[Aib][Phe(4-Cl)]CKR[αMeS]NC[Tle]T-NH2; disulfide 5-10)	< 200 nM	< 12.6 nM			
C[C@@H](O)[C@H](NC(=O)[C@@H](NC(=O)[C@@H]1CSSC[C@H](NC(=O)[C@H](Cc2ccccc2)NC(=O)C(C)(C)NC(=O)[C@@H](NC(=O)c2ccc(CNC(=O)CN3CCN(CC(=O)O)CCN(CC(=O)O)CCN(CC(=O)O)CC3)cc2)[C@@H](C)O)C(=O)N[C@@H](CCCCN)C(=O)N[C@@H](CCCNC(=N)N)C(=O)NC(C)(C)C(=O)N[C@@H](CC(N)=O)C(=O)N1)C(C)(C)C)C(N)=O [PSM-0202, DOTA-Pamb-Thr-Aib-Phe-[Cys-Lys-Arg-Aib-Asn-Cys]-Tle-Thr-NH2] ({DOTA-4Amb}-T[Aib]FCKR[Aib]NC[Tle]T-NH2; disulfide 4-9)			< 200 nM	< 12.6 nM	
CNCCCC[C@@H]1NC(=O)[C@@H](NC(=O)[C@H](Cc2ccc(Cl)cc2)NC(=O)C(C)(C)NC(=O)[C@@H](NC(=O)CC2CCN(C(=O)CN3CCN(CC(=O)O)CCN(CC(=O)O)CCN(CC(=O)O)CC3)CC2)[C@@H](C)O)CSSC[C@@H](C(=O)N[C@H](C(=O)N[C@H](C(N)=O)[C@@H](C)O)C(C)(C)C)NC(=O)[C@H](CC(N)=O)NC(=O)C(C)(C)NC(=O)[C@H](CCCNC(=N)N[N+](=O)[O-])NC1=O [PSM-0254, DOTA-Cmp-Thr-Aib-Pcf-[Cys-Lys(Me)-Eew-Aib-Asn-Cys]-Tle-Thr-NH2] ({DOTA}-[X1]T[Aib][Phe(4-Cl)]C[Lys(Me)][Arg(NO2)][Aib]NC[Tle]T-NH2; disulfide 5-10)			< 200 nM	< 12.6 nM	
CC(=O)N[C@H](C(=O)NC(C)(C)C(=O)N[C@@H](Cc1ccccc1)C(=O)N[C@H]1CSSC[C@@H](C(=O)N[C@H](C(=O)N[C@H](C(=O)NC2CCN(CC(=O)N[C@H](CCCCNC(=O)CN3CCN(CC(=O)O)CCN(CC(=O)O)CCN(CC(=O)O)CC3)C(N)=O)CC2)[C@@H](C)O)C(C)(C)C)NC(=O)[C@H](CC(N)=O)NC(=O)C(C)(C)NC(=O)[C@H](CCCNC(=N)N)NC(=O)[C@H](CCCCN)NC1=O)[C@@H](C)O [PSM-0191, Ac-Thr-Aib-Phe-[Cys-Lys-Arg-Aib-Asn-Cys]-Tle-Thr-APAc-lys(DOTA)-NH2] (Ac-T[Aib]FCKR[Aib]NC[Tle]T[X4][dK](DOTA)-NH2; disulfide 4-9)			< 200 nM	< 12.6 nM	
CC(=O)N[C@H](C(=O)NC(C)(C)C(=O)N[C@@H](Cc1ccccc1)C(=O)N[C@@H]1CSSC[C@@H](C(=O)N[C@H](C(=O)N[C@H](C(N)=O)[C@@H](C)O)C(C)(C)C)NC(=O)[C@H](CC(N)=O)NC(=O)C(C)(C)NC(=O)[C@H](CCCNC(=N)N)NC(=O)[C@H](CCCCN)NC1=O)[C@@H](C)O [PSM-0348, Ac-Thr-Aib-Phe-[cys-Lys-Arg-Aib-Asn-Cys]-Tle-Thr-NH2] (Ac-T[Aib]F[dC]KR[Aib]NC[Tle]T-NH2; disulfide 4-9)					IC50 ([1]; FACS binding, PSMA-expressing C4-2 cells, pIC50 category): > 3160 nM; Kd ([2]; PSMA SPR assay, pKD category): > 501 nM
CCCC[C@H](NC(=O)[C@@H]1CSSC[C@H](NC(=O)[C@H](Cc2ccccc2)NC(=O)[C@H](C)NC(=O)[C@H](C)NC(C)=O)C(=O)N[C@@H](CCCCN)C(=O)N[C@@H](CCCNC(=N)N)C(=O)N[C@@H](C)C(=O)N[C@@H](CC(N)=O)C(=O)N1)C(=O)N[C@H](C(=O)N[C@@H](CC(=O)O)C(N)=O)[C@@H](C)O [PSM-0491, Ac-Ala-Ala-Phe-[Cys-Lys-Arg-Ala-Asn-Cys]-Nle-Thr-Asp-NH2] (Ac-AAFCKRANC[Nle]TD-NH2; disulfide 4-9)	200 to 1260 nM	126 to 501 nM			
CCCC[C@H](NC(=O)[C@@H]1CSSC[C@H](NC(=O)[C@H](Cc2ccccc2)NC(=O)[C@H](C)NC(=O)[C@@H](NC(C)=O)[C@@H](C)O)C(=O)N[C@@H](CCCCN)C(=O)N[C@@H](CCCNC(=N)N)C(=O)N[C@@H](C)C(=O)N[C@@H](CC(N)=O)C(=O)N1)C(=O)N[C@H](C(=O)N[C@@H](CC(=O)O)C(=O)NCCCOCCOCCOCCCNC(=O)CCC(=O)N[C@H](CCCCNC(=O)CN1CCN(CC(=O)O)CCN(CC(=O)O)CCN(CC(=O)O)CC1)C(N)=O)[C@@H](C)O [PSM-0533, Ac-Thr-Ala-Phe-[Cys-Lys-Arg-Ala-Asn-Cys]-Nle-Thr-Asp-Ttds-lys(DOTA)-NH2] (Ac-TAFCKRANC[Nle]TD-{TtdsdLys(DOTA)NH2}; disulfide 4-9)	200 to 1260 nM	12.6 to 126 nM			
CC(=O)N[C@H](C(=O)NC(C)(C)C(=O)N[C@@H](Cc1cccc(C)c1)C(=O)N[C@H]1CSSC[C@@H](C(=O)N[C@H](C(=O)N[C@H](C(N)=O)[C@@H](C)O)C(C)(C)C)NC(=O)[C@H](CC(N)=O)NC(=O)C(C)(C)NC(=O)[C@H](CCCNC(=N)N)NC(=O)[C@H](CCCCN)NC1=O)[C@@H](C)O [PSM-0412, Ac-Thr-Aib-Mmf-[Cys-Lys-Arg-Aib-Asn-Cys]-Tle-Thr-NH2] (Ac-T[Aib][Phe(3-Me)]CKR[Aib]NC[Tle]T-NH2; disulfide 4-9)	< 200 nM	< 12.6 nM			
